Common to all, as to assay type: in vivo, SD rats
The test system of test [1] is Gln in intestinal mucosa. The experiment in a line: Gln in intestinal mucosa by ELISA, TNBS model rats. As to conditions: 100 mg/kg once per day, 21 days. The method, then: Grouping: experiment was carried out by using two ways of intracolonic and intragastric administrations. […] There were 10 rats each group. Method for establishing rat model: referring to Morris method, TNBS was used to induce the SD rat Crohn's disease model (abbreviated as “TNBS model”). 24 hours before modeling, the SD rats were fasted but water was given. […] The rats of blank control group were normally fed with free access to water and the same volume of normal saline was given in the same administration routes by referring to the dosage regime of aforementioned treatment groups. The rats of model group were administrated with the same volume of normal saline in the same administration routes. […] (2) Serum indices: after final administration, the testing rats were fasted but given water. 24 hours later, blood was gained from abdominal aorta. Serum IFN-γ, IL-1, IL-4, IL-10 and Gln in intestinal mucosa were determined by enzyme-linked immunosorbent assay (ELISA) in rats.

Test [2] has as its system Gln in intestinal mucosa. The test is described as follows: Gln in intestinal mucosa by ELISA, OXZ model rats. As to conditions: 100 mg/kg once per day, 11 days. The method, then: Grouping: the experiment was carried out by using two ways of intracolonic and intragastric administration. […] There were 10 rats each group. Method for establishing rat model: referring to the Heller method, OXZ was used to induce the SD rat Crohn's disease model (abbreviated as “OXZ model”). Neck and back skin of rats were shaved (2 cm×2 cm). Ethanol was used to prepare 5% (w/v) OXZ solution, and 0.3 ml resultant OXZ solution was dripped on the skin of rats. After the solution was air-dried naturally, skin allergy occurred in rats. The sensitized rats were adaptively raised for 5 days, […] anesthetized by intraperitoneal injection of pentobarbital sodium. […] After completion, the rats were inverted by lifting tails for 60s to make the solution totally absorbed. […] If the rats manifested dark hair color, body weight loss, poor appetite, lassitude, watery stool or diarrhea, the model establishment was success. Administration method: after successful model establishment by OXZ, the drug was given to rats. The TCM preparation k saline solutions at corresponding dose were administered to the groups of preparation k of all doses and the […] saline solution, a positive drug, administrated to the positive control group. […] Serum IFN-γ, IL-4, and Gln in intestinal mucosa were determined by ELISA in rats.
A general note: In an ELISA, binding on a coated surface is turned into a signal by an enzyme label.

Test [3] deals with OXZ-induced SD rat Crohn's disease model. The experiment in a line: Colon gross damage and histopathological score, OXZ model rats. As to conditions: 100 mg/kg. The method, then: Grouping: the experiment was carried out by using two ways of intracolonic and intragastric administration. […] There were 10 rats each group. Method for establishing rat model: referring to the Heller method, OXZ was used to induce the SD rat Crohn's disease model (abbreviated as “OXZ model”). Neck and back skin of rats were shaved (2 cm×2 cm). Ethanol was used to prepare 5% (w/v) OXZ solution, and 0.3 ml resultant OXZ solution was dripped on the skin of rats. […] The sensitized rats were adaptively raised for 5 days, […] anesthetized by intraperitoneal injection of pentobarbital sodium. […] After completion, the rats were inverted by lifting tails for 60s to make the solution totally absorbed. […] If the rats manifested dark hair color, body weight loss, poor appetite, lassitude, watery stool or diarrhea, the model establishment was success. Administration method: after successful model establishment by OXZ, the drug was given to rats. The TCM preparation k saline solutions at corresponding dose were administered to the groups of preparation k of all doses and the […] saline solution, a positive drug, administrated to the positive control group. The rats of blank control group were normally fed, given with water and the same volume of normal saline was given in the same administration routes by referring to the dosage regime of aforesaid treatment groups. The rats of model group were administrated with the same volume of normal saline in the same administration routes. The dose of each group was as follows: […] group at 100 mg/kg rat weight, the TCM preparation k high-dose group at 2.023 g raw medicine/kg rat weight, the middle-dose group at 1.012 g raw medicine/kg rat weight and the low-dose group at 0.506 g raw medicine/kg rat weight.

The subject of test [4] is TNBS-induced SD rat Crohn's disease model. The experiment in a line: Colon gross damage and histopathological score, TNBS model rats. As to conditions: 100 mg/kg. The method, then:
Grouping: experiment was carried out by using two ways of intracolonic and intragastric administrations. […] There were 10 rats each group. Method for establishing rat model: referring to Morris method, TNBS was used to induce the SD rat Crohn's disease model (abbreviated as “TNBS model”). 24 hours before modeling, the SD rats were fasted but water was given. […] The rats of blank control group were normally fed with free access to water and the same volume of normal saline was given in the same administration routes by referring to the dosage regime of aforementioned treatment groups. The rats of model group were administrated with the same volume of normal saline in the same administration routes. […] (3) Pathological indices: the colon of rats was taken out. The gross colon tissue damage was scored, subsequently examined and scored histopathologically by conventional HE staining. […] [table]

Setting [5] is: Table 18: OXZ-model rats, route not printed in title.

Here are results for one compound from US20160220602A1, “USE OF CHINESE MEDICINE PREPARATION IN PREPARING DRUG FOR PREVENTING AND/OR TREATING CROHN'S DISEASE” (TASLY PHARMACEUTICAL GROUP CO., LTD., priority 2013, published 2016).

Take `Nc1ccc(O)c(C(=O)O)c1` [mesalamine, Mesalamine]: the “Gln in intestinal mucosa (Mean ± SD)” value is 146.36 ± 28.11 µmol/L in the test on Gln in intestinal mucosa [1] (intracolonic), 158.74 ± 41.35 µmol/L in the test with Gln in intestinal mucosa [1] (intragastric), 124.06 ± 24.40 µmol/L with Gln in intestinal mucosa [2] (intracolonic) and 132.59 ± 41.74 µmol/L with Gln in intestinal mucosa [2] (intragastric). The “Gross damage score (Mean ± SD)” value is given as 1.700 ± 1.494 in test [3] (OXZ model rats, intragastric); 1.800 ± 1.229 in test [3] (setting [5]); 0.500 ± 0.707 in test [4] (intracolonic); 0.556 ± 0.527 in test [4] (intragastric). The “Histopathological score (Mean ± SD)” value was found to be 3.17 ± 1.33 in test [3] (setting [5]), 1.00 ± 1.10 in test [4] (intracolonic) and 0.83 ± 0.41 in test [4] (intragastric).
